This is an account of results in patent publication US7534607B1, “Method of producing cardiomyocytes from mesenchymal stem cells” (Industrial Technology Research Institute, priority 2005, dated 2009).

The test system of series [1] is embryonic stem cells (ESCs). The note with it: ascorbic acid 0.01 mM; other antioxidants compared; Takahashi et al 2003; cited from earlier work.
The subject of another series is differentiated MSCs. Nature of the series: Myotube formation detected by immunohistochemistry (phallacidin / propidium iodide staining). The series is classed as cell-based, porcine. To be noted: differentiated MSCs after ascorbic acid induction, confocal microscopy. As for the experimental part: To further verify the myotube formation by ascorbic acid induction, the differentiated MSCs were stained with fluorescent phallacidin, which binds to F-actin, to reveal the formed myofibrils under phase contrast microscope (FIG. 4A) and fluorescence microscope (FIGS. 4B, 4C, and 4D), respectively. Briefly, the differentiated MSCs were washed three times with PBS for 3 minutes and the cells were then fixed with 4% paraformaldehyde for 15 min, and normalized with 0.1M glycine for 5 min, and permeabilized with 0.1% Tween 20 for 1 min. The myotube formation was confirmed by treating with alexa flour 488-conjugate phallacidin (Molecular Probes) for 20 min at room temperature. The cells were then washed two or more times with PBS. The multi-nucleate myotubes were stained by propidium iodide (Sigma) for 5 min at room temperature. After washing, they were mounted and observed under confocal laser scanning microscopy, and the multinucleated myotubes, which are one of the characteristics of fused myogenic cells, were detectable by propidium iodide staining (FIGS. 4B, 4C, and 4D).

Series [2] relates to single BMSCs clones (fast-growing and slow-growing) and mixed MSCs. The series is described as follows: Cardiogenic potential of mixed MSCs and single BMSCs clones under ascorbic acid. The note with it: 4 weeks. The class given is cell-based, porcine. Here is the method:
The porcine mixed MSCs of example 1.1 were collected from upper and interface layers, and then seeded at limited dilution into culture. Briefly, 1×10^4 mononucleated cells were plated in each well of a 96-multiwell plate, washed with HBSS (Gibco) twice, and then cultured in αMEM (Hyclone) containing 20% FBS from selected lots at 37° C. in humid air with 5% CO2. Non-adhesive cells were removed by medium change and the number of the remaining cells attached to the bottom of culture wells was examined under the microscope. Clones from wells containing only a single cell attached were chosen for further study. The isolated cells were further cultured for 3 passages, and then frozen in liquid nitrogen until the differentiation studies.
For selecting the fast-growing single BMSCs clones, the nucleated cells were seeded onto 1,000 wells following limited dilution in culture (10^4 cells/well), and 120 clones, each of which was derived from a single attached cell in the well, were obtained. Morphologically, all of the clones comprised a relatively homogeneous population of fibroblast-like cells at subconfluence, while at confluence the cells appeared more polygonal and formed a tight packed monolayer.
To examine the cardiogenic potential of single BMSCs clones, mixed MSCs of example 1.1 and isolated single BMSCs clones of example 1.2 (both fast-growing clones of clones 1-4 and slow-growing clones of clones 5-8) were cultured in the presence of 1 mM ascorbic acid for 4 weeks, and one representative result was illustrated in FIG. 3. Before ascorbic acid treatment, there were no differences in terms of morphology among mixed population of MSCs (FIG. 3A), fast-growing clone No. 1 (FIG. 3B) and slow-growing clone No. 8 (FIG. 3C), respectively.

For series [3], the system named is myogenic associated genes in MSCs. Nature of the series: RT-PCR of myogenic associated genes. The class given is cell-based, porcine. As for the experimental part: (§1) The effect of ascorbic acid on the expression of myogenic associated genes and proteins were examined by Reverse-transcription polymerase chain reaction (RT-PCR) (FIG. 5) and western blot (FIG. 6), respectively.
RT-PCR Total RNA was extracted from differentiated MSCs using a RNA mini Kit (e.g., QIAGEN). Subsequently, cDNA was synthesized from 1 μg of extracted total RNA using a ThermoScript RT-PCR kit (Invitrogen). The PCR reaction was carried out with Taq DNA polymerase (Invitrogen). Reverse-transcription polymerase chain reaction (RT-PCR) of myogenic associated genes, including actin, alpha 1, skeletal muscle (ACTA), actin, alpha, cardiac muscle (ACTC) (Kubalak et al., (1994) J. Biol. Chem. 269(24), 16961-16970), mef-2c, mef-2d (Skerjanc et al., (1998) J. Biol. Chem. 273(52), 34904-34910), myogenin (Wright et al., (1989) Cell 56(4), 607-617), nkx2.5 (Lints et al., (1993) […]) and tef-1 (Chen et al., (1994) Genes Dev 8(19), 2293-2301), were performed on the differentiated cell samples (Table 1). The relative expression level of glyceraldehyde 3-phosphate dehydrogenase (GAPDH) was used as an internal control for each sample, and porcine heart and skeletal muscle cells were used as a positive control of differentiation pathway. A spectrophotometer (Amersham Bioscience) and Agilent 2100 Bioanalyzer (Agilent Technologies) were used to measure the total RNA of concentration and integrity, respectively. Results were illustrated in FIG. 5.

Series [4] has as its system cardiac troponin I in fast growing BMSC clones. Nature of the series: Western blot of cardiac troponin I and connexin43. The note with it: fast growing BMSC clone No. 1 treated with ascorbic acid. The series is classed as cell-based, porcine. As for the experimental part: as §1
Western Blot Total protein from the differentiated MSCs were extracted with cell lysis buffer (Pierce) containing 1× protease inhibitor cocktail (Roche). Protein concentration was determined by a Bio-Rad protein assay kit. Samples were boiled for 5 minutes and then subjected to 12.5% polyacrylamide gel electrophoresis. Proteins in gel were electrophoretically transferred to polyvinylidene diflouride membrane (PVDF, Millipore) at 4° C. for overnight in 25 mM Tris, 190 mM glycine (pH 8.3) containing 0.01% SDS and 10% methanol. The membrane was blocked with 5% non-fat milk to prevent nonspecific binding and then incubated with one of […] primary antibodies. Subsequently, the membrane was stained with primary antibodies that were against cardiac troponin I (at a dilution of 1:1000) and connexin43 (at a dilution of 1:2000) (Chemicon) (Makino et al., (1999) J. Clin. Invest. 103(5), 697-705), respectively, for 1 hour at room temperature. […] Bound antibodies were recognized by horseradish peroxidase-conjugated goat anti-mouse IgG and ECL reagent (Pierce), and detected by chemiluminescent detection.
(In western blotting, separated proteins are transferred to a membrane and probed.)

A further series relates to porcine mixed MSCs. Nature of the series: Cardio differentiation (myotube formation) of mixed MSCs by differentiation agents. The class given is cell-based. To be noted: 4 weeks of culture, 5-azacytidine 3 μM, ascorbic acid 1 mM. Here is the method:
Porcine bone marrow mononucleated cells were purified according to a protocol described by Haynesworth et al (Haynesworth et al., (1992) Bone 13(1), 81-8). Briefly, bone marrows from posterior iliac crest bones of three 6-8 months old Lee-Sung miniature pigs (Luh et al., (2000) Transplantation 69(10), 2019-2027) ([…]) were aspirated into syringes that contained 6,000 unit heparin. The marrow samples were diluted in a ratio of 1:1 with HBSS (Gibco) and loaded onto 1.073 g/mL Ficoll solution (Amersham) in 50 mL centrifugations tubes and were centrifuged at 2,000 rpm for 40 min at room temperature. The mononucleated cells were collected from upper and interface layers, and washed with HBSS (Gibco) twice. Subsequently, the cells were cultured in αMEM (Hyclone) medium containing 100 unit/ml penicillin, 100 μg/ml streptomycin (Gibco) and 20% fetal bovine serum (FBS) from a selected lot (Gibco, Lot No.: 1149239) at 37° C. in humid air with 5% CO2. After a series of continuously cultures, the non-adhesive cells were removed by medium change. Porcine mixed mesenchymal stem cells (MSCs) thus obtained may be used directly in the differentiation experiment of example 1.3 and can be successfully propagated for at least 2 months. […]

The conditions of series [5]: background statement; cited from earlier work.
Where [6] appears, read: MSCs after ascorbic acid treatment.
The mark [7] stands for this setting: over the course of differentiation.

Take `O=S(=O)(O)c1cc(O)c(O)c(S(=O)(=O)O)c1` [Tiron]: the “induction of differentiation of ESCs into cardiomyocytes” value in series [1] is reported as “not mimicked”.

`O=C1O[C@H]([C@@H](O)CO)C(O)=C1O` [ascorbic acid]: the “multinucleated myotubes by propidium iodide staining” value with differentiated MSCs is given as “detectable”. The “morphology after ascorbic acid treatment” value in series [2] (fast-growing clone No. 1, 1 mM ascorbic acid) was “started to form myotube-like structures from the third week”. Besides, in series [2] (mixed MSCs, 1 mM ascorbic acid), the “morphology after ascorbic acid treatment” value was “started to form myotube-like structures from the third week”. In addition, in series [2] (slow-growing clone No. 8, 1 mM ascorbic acid), the “morphology after ascorbic acid treatment” value is given as “retained a fibroblast-like morphology after 4 weeks”. Moreover, in series [3] (setting [6]), the “expression of ACTA gene” value was “increased significantly”, the “expression of mef-2d gene” value is listed as “increased significantly” and the “expression of myogenin gene” value was “increased significantly”. In series [3] (setting [7]), the “expression of ACTC gene” value is recorded as “no significant change”, the “expression of mef-2c gene” value was “no significant change” and the “expression of nkx2.5 gene” value is given as “no significant change”. The “expression of cardiac troponin I protein” value in series [4] is “expression of a heart specific protein, i.e., cardiac troponin 1”. Further, the “differentiation rate (formation of myotubes)” value in the series with porcine mixed MSCs is ~25%. In addition, the “induction of differentiation of ESCs into cardiomyocytes” value in series [1] is “induction of differentiation of ESCs into cardiomyocytes”.

On to vitamin E, for which, in series [1], the “induction of differentiation of ESCs into cardiomyocytes” value was “not mimicked”.

`Nc1ncn([C@@H]2O[C@H](CO)[C@@H](O)[C@H]2O)c(=O)n1` [5-azacytidine]: the “differentiation rate (formation of myotubes)” value with porcine mixed MSCs is “about 10%”. Further, in series [5], the cytotoxicity entry is listed as “cytotoxic”.

Regarding `CC(=O)N[C@@H](CS)C(=O)O` [N-acetylcysteine], the “induction of differentiation of ESCs into cardiomyocytes” value in series [1] is listed as “not mimicked”.
